ChEMBL document CHEMBL1201862, “PubChem BioAssay data set” (2004)
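Interpolation was linear, between the two tested concentrations surrounding the appropriate level; five concentrations were tested over 48 hours in 96-well plates. Abbreviation: GI50, concentration required for 50% inhibition of growth.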 Calls of active or inactive are those of the source. Cut-off read from the data, not from the text of the source: active = GI50 up to about 1.1 µM and inactive = higher. Where a SMILES comes first, the peptide text is derived from it. The star is where a group is joined. Cbz = O=C(OCc1ccccc1)*

Tests used:
Assay in all cases: DTP human tumour cell line panel, 48 h
[1] = tested on: MDA-N
[2] = tested on: SF-295
[3] = tested on: HOP-62
[4] = tested on: K562
[5] = tested on: SN12C
[6] = tested on: NCI-H522
[7] = tested on: IGROV-1
[8] = tested on: EKVX
[9] = tested on: SK-MEL-28
[10] = tested on: TK-10
[11] = tested on: UO-31
[12] = tested on: SNB-75
[13] = tested on: ACHN
[14] = tested on: OVCAR-4
[15] = tested on: NCI/ADR-RES
[16] = tested on: SF-268
[17] = tested on: RXF 393
[18] = tested on: M14
[19] = tested on: A498
[20] = tested on: SK-MEL-2

Measured: GI50

COC(=O)C(CC(C)C)NC(=O)C(CCCNC(=N)N)NC(=O)OCc1ccccc1 (stereo not drawn) (Cbz-Arg-Leu-OMe; configuration not given here)
inactive: [1] > 100 µM | [2] > 100 µM | [3] > 100 µM | [4] > 100 µM | [5] > 100 µM | [6] 78.5 µM | [7] > 100 µM | [8] > 100 µM | [9] > 100 µM | [10] > 100 µM | [11] > 100 µM | [12] 72.6 µM | [13] > 100 µM | [14] > 100 µM | [15] > 100 µM | [16] > 100 µM | [17] > 100 µM | [18] > 100 µM

CC1CN(c2cc3c(cc2F)c(=O)c(C(=O)O)cn3-c2ccc(N3CCN(C)CC3)cn2)CC(C)N1 (stereo not given)
inactive: [1] > 100 µM | [19] > 100 µM | [2] > 100 µM | [3] 89.9 µM | [4] 65.6 µM | [5] > 100 µM | [7] > 100 µM | [8] > 100 µM | [9] > 100 µM | [10] > 100 µM | [11] > 100 µM | [12] > 100 µM | [14] > 100 µM | [15] > 100 µM | [16] > 100 µM | [17] > 100 µM | [18] > 100 µM

O=C(Nc1cccc(C(F)(F)F)c1)c1cc(Br)cc(Br)c1O [FLUOROSALAN]
inactive: [1] 3.69 µM | [2] 2.62 µM | [3] 5.22 µM | [4] 2.08 µM | [5] 3.59 µM | [6] 3 µM | [7] 4.28 µM | [8] 2.19 µM | [9] 3.38 µM | [10] 2.96 µM | [11] 2.35 µM | [12] 3.35 µM | [13] 3.06 µM | [20] 2.32 µM | [14] 3.68 µM | [15] 2.36 µM | [16] 4.25 µM | [17] 2.71 µM | [18] 4.94 µM

CC(=O)NC(Cc1ccc(O)cc1)C(=O)O (stereo not given)
inactive: [1] > 100 µM | [19] > 100 µM | [2] > 100 µM | [3] > 100 µM | [4] > 100 µM | [5] > 100 µM | [6] > 100 µM | [7] > 100 µM | [8] > 100 µM | [9] > 100 µM | [10] > 100 µM | [11] > 100 µM | [13] > 100 µM | [20] > 100 µM | [14] > 100 µM | [15] > 100 µM | [16] > 100 µM | [17] > 100 µM | [18] > 100 µM

CC(=O)Oc1ccc(/C=C/C(=O)NCC(NC(=O)/C=C/c2ccc(OC(C)=O)c(OC(C)=O)c2)C(=O)O)cc1OC(C)=O (stereo not given)
inactive: [1] > 100 µM | [19] > 100 µM | [2] > 100 µM | [3] > 100 µM | [4] 56.2 µM | [5] > 100 µM | [6] 46.8 µM | [7] > 100 µM | [8] > 100 µM | [9] > 100 µM | [10] > 100 µM | [11] > 100 µM | [13] > 100 µM | [20] > 100 µM | [14] > 100 µM | [15] > 100 µM | [16] > 100 µM | [17] > 100 µM | [18] > 100 µM

CC1(C)CC(=O)c2c(nc3c(ccc4ccccc43)c2-c2ccc(NC(=O)CCCC(=O)Nc3ccc(-c4c5c(nc6c4ccc4ccccc46)CC(C)(C)CC5=O)cc3)cc2)C1
inactive: [1] > 100 µM | [2] > 100 µM | [3] > 100 µM | [4] > 100 µM | [5] > 100 µM | [6] > 100 µM | [7] 58.5 µM | [8] > 100 µM | [9] > 100 µM | [10] > 100 µM | [11] > 100 µM | [12] > 100 µM | [13] > 100 µM | [20] > 100 µM | [15] > 100 µM | [16] > 100 µM | [17] > 100 µM | [18] > 100 µM

c1ccc2c[n+](Cc3ccnc4ccccc34)ccc2c1
inactive: [1] > 100 µM | [19] > 100 µM | [2] > 100 µM | [3] > 100 µM | [4] > 100 µM | [5] > 100 µM | [6] > 100 µM | [7] > 100 µM | [8] 71 µM | [9] > 100 µM | [10] > 100 µM | [11] > 100 µM | [13] > 100 µM | [20] > 100 µM | [14] > 100 µM | [15] > 100 µM | [16] > 100 µM | [17] > 100 µM | [18] > 100 µM

N=c1oc2ccccc2cc1C(=O)Nc1cccc2ccccc12
inactive: [1] > 100 µM | [19] > 100 µM | [3] 50 µM | [4] > 100 µM | [5] > 100 µM | [7] > 100 µM | [9] > 100 µM | [12] > 100 µM | [13] > 100 µM | [20] > 100 µM | [14] > 100 µM | [15] > 100 µM | [16] > 100 µM | [17] > 100 µM | [18] > 100 µM

O=C1c2ccccc2-c2nnc3c(c21)-c1ccccc1C3
inactive: [1] > 100 µM | [2] > 100 µM | [5] > 100 µM | [6] 48.6 µM | [8] 18.5 µM | [11] 23.2 µM | [12] 76 µM | [13] 27.5 µM | [20] > 100 µM | [15] > 100 µM | [16] > 100 µM | [17] > 100 µM | [18] > 100 µM

Clc1nc2c(C#Cc3ccccc3)ncnc2n1C1CCCCO1 (stereo not given)
inactive: [1] 8.47 µM | [2] 22.6 µM | [3] 31.2 µM | [4] 30.3 µM | [5] 10.4 µM | [6] 7.94 µM | [7] 13.5 µM | [8] 2.55 µM | [9] 26.5 µM | [10] 20.5 µM | [11] 11.9 µM | [12] 18.1 µM | [13] 16.1 µM | [20] 12.9 µM | [14] 9.51 µM | [15] 25.8 µM | [16] 14 µM | [17] 10.4 µM | [18] 12.1 µM

COC(OC)[C@@H]1OC[C@H](n2cnc3c(N)ncnc32)[C@H]1O
inactive: [1] > 100 µM | [19] > 100 µM | [2] > 100 µM | [3] > 100 µM | [4] > 100 µM | [5] > 100 µM | [7] > 100 µM | [8] > 100 µM | [9] > 100 µM | [10] > 100 µM | [11] > 100 µM | [12] > 100 µM | [13] > 100 µM | [20] > 100 µM | [14] > 100 µM | [15] > 100 µM | [16] > 100 µM | [17] > 100 µM | [18] > 100 µM
